Structures can show the parent of a compound that is named as a salt. Where two headings read alike, the source gives them in different places.
Molecular target: human Nav1.8 (Homo sapiens, UniProt Q9Y5Y9)
Test: SyncroPatch384PE assay (automated patch clamp)
Assay type: cell-based
Conditions: human Nav1.8/b3 CHO cells
Experimental: Compounds were tested on recombinant human Nav1.8/b3 stably transfected CHO cells using the SyncroPatch384PE system (Nanion Technologies), an automated patch clamp device. Cells were cultured at 37° C./5% CO2 in Ham's F-12 supplemented with 10% fetal bovine serum, 100 U/mL penicillin G sodium, […] streptomycin sulfate and selection antibiotics (0.01 mg/mL Blasticidin, 0.4 mg/mL Zeocin and 0.25 mg/mL Hygromycin). On the day of the recordings, cells in culture dishes were washed twice with Hank's Balanced Salt Solution (HBSS) and treated with Accutase for approximately 20 minutes. Immediately before use in the SynchroPatch384PE using an 8-hole NPC-384 chip, the cells were washed in HBSS to remove the Accutase and re-suspended in extracellular solution. All experiments were performed at ambient temperature. Intracellular solution contained (mM): CsCl, 50; CsF, 90; MgCl2, 5; EGTA, 1; HEPES, 10; pH adjusted to 7.2 with CsOH. Extracellular solution contained (mM): NaCl, 137; KCl, 4.0; CaCl2), 3.8; MgCl2, 1; HEPES, 10; Glucose, 10; pH adjusted to 7.4 with NaOH. 100 nM tetrodotoxin (TTX) was added to the extracellular solution to block endogenous TTX-sensitive sodium currents.
Compounds were tested in quadruplicate in 0.3% DMSO and 0.03% pluronic Acid. Compounds were diluted 1:3.33 in extracellular solution to create an 8-point concentration response curve. Each plate contained a historical positive control and up to ten compounds. 300 μM tetracaine and 0.3% DMSO+0.03% pluronic acid were used as high and low controls respectively.
Whole cell patch clamp recordings were conducted according to Nanion's standard procedure for SyncroPatch384PE®. Cells were held at a holding potential of −120 mV. A depolarization step to 10 mV for 30 ms was applied (P1 measurement), followed by a hyperpolarization step to −100 mV for 100 ms. An inactivation step at −35 mV for 10 sec was applied before stepping to −100 mV for 20 ms, followed by a step to 10 mV for 30 ms (P2 measurement) and then back to −100 mV for 30 ms. Sweep interval was 15 sec. Following establishment of the whole-cell configuration in extracellular solution, cells were washed in extracellular solution containing 0.3% DMSO and 0.03% pluronic acid to stabilize the baseline current. Compounds were then applied by the SynchroPatch384 PE system into each well and the current was recorded for five minutes in extracellular solution, followed by application of tetracaine to achieve full block at the end of experiment. The potency of the compounds was assessed on two read-outs, resting state block (P1 measurement) or inactivated state block (P2 measurement) to obtain IC50 values. Values were normalized to high (tetracaine) and low (DMSO+pluronic acid) controls.
Examples 1 to 219 and Examples 225 to 236 are assayed using SyncroPatch384PE assay described above.

[1] = inactivated state block (P2 measurement), read-out: P2 IC50
[2] = resting state block (P1 measurement), read-out: P1 IC50

human Nav1.8, sequence (Q9Y5Y9 whole entry): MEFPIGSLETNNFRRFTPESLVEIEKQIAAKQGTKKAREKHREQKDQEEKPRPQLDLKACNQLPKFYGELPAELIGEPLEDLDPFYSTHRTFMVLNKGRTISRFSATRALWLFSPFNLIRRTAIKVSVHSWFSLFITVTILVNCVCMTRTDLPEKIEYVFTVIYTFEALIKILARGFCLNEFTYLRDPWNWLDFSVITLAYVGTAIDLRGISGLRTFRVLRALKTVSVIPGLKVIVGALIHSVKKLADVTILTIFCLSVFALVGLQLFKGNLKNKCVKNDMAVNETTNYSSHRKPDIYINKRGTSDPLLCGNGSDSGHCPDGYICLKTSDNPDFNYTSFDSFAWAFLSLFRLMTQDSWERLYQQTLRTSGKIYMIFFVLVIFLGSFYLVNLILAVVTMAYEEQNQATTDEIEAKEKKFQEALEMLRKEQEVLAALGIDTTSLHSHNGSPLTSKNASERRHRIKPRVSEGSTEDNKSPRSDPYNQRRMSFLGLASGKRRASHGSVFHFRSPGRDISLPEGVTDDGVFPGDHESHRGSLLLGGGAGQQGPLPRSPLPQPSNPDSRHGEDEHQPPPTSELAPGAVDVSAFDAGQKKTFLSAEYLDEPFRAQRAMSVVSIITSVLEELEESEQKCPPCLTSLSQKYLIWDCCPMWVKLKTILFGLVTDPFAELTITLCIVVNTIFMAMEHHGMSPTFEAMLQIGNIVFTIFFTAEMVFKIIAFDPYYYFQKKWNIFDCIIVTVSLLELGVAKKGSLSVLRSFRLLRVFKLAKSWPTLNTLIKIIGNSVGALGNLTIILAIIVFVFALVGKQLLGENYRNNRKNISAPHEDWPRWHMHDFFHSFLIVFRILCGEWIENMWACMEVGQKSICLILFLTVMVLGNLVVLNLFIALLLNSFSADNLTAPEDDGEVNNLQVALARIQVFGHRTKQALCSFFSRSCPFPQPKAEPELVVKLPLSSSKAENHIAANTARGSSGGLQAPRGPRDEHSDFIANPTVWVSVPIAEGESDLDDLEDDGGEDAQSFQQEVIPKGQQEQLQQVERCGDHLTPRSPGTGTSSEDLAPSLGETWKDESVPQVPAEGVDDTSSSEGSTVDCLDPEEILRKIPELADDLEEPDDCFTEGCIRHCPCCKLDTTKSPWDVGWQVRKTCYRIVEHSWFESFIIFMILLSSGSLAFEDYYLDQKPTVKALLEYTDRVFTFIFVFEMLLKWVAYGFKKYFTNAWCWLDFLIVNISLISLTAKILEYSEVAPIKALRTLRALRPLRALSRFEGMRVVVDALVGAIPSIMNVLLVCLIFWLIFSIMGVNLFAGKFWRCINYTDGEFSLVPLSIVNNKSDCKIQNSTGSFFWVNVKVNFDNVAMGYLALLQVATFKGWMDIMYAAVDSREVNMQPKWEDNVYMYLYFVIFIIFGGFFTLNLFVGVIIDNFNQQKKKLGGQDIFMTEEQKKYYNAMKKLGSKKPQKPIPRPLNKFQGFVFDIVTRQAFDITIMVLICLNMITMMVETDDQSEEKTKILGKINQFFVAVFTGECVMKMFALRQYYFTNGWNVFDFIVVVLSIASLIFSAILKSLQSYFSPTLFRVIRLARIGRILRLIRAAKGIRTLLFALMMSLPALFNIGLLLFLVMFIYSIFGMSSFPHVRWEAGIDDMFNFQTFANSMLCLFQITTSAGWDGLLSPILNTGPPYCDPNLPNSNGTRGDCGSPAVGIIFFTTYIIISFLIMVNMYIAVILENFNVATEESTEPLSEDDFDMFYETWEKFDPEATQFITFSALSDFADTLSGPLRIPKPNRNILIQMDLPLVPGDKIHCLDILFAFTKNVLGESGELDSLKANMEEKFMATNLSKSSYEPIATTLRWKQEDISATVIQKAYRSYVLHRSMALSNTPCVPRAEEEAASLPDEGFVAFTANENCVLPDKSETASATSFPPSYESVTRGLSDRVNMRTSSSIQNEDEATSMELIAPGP

Cc1c(N2CC3(COC3)C2)nnc(N2CCCC(F)(F)CC2)c1C(=O)Nc1cccc([S@](C)(=N)=O)c1 [Example 140, (R)-3-(4,4-difluoroazepan-1-yl)-5-methyl-N-(3-(S-methylsulfonimidoyl)phenyl)-6-(2-oxa-6-azaspiro[3.3]heptan-6-yl)pyridazine-4-carboxamide]
IC50 [1]: > 200 nM
IC50 [2]: > 200 nM

Cc1c(-c2ccc(C#N)cc2)cnc(N2CCCC(F)(F)CC2)c1C(=O)Nc1cccc([S@@](C)(=O)=NC(=O)C(C)(C)N)c1 [Example 55, (R)-N-(3-(N-(2-amino-2-methylpropanoyl)-S-methylsulfonimidoyl)phenyl)-5-(4-cyanophenyl)-2-(4,4-difluoroazepan-1-yl)-4-methylnicotinamide]
IC50 [1]: ≤ 5 nM
IC50 [2]: ≤ 5 nM

Cc1c(C(F)(F)F)ncc(N2CCCC(F)(F)CC2)c1C(=O)Nc1cccc([S@](C)(=N)=O)c1 [Example 197, (R)-5-(4,4-difluoroazepan-1-yl)-3-methyl-N-(3-(S-methylsulfonimidoyl)phenyl)-2-(trifluoromethyl)isonicotinamide]
IC50 [1]: 50 to 100 nM
IC50 [2]: 50 to 100 nM

C[S@@](=N)(=O)c1cccc(NC(=O)c2cc(C(F)(F)F)nnc2N2CCCC(F)(F)CC2)c1 [Example 18, (R)-3-(4,4-difluoroazepan-1-yl)-N-(3-(S-methylsulfonimidoyl)phenyl)-6-(trifluoromethyl)pyridazine-4-carboxamide]
IC50 [1]: 100 to 200 nM
IC50 [2]: > 200 nM

Cc1nc(N2CCCC(F)(F)CC2)c(C(=O)Nc2cccc([S@](C)(=N)=O)c2)c(C)c1Br [Example 172, (R)-5-bromo-2-(4,4-difluoroazepan-1-yl)-4,6-dimethyl-N-(3-(S-methylsulfonimidoyl)phenyl)nicotinamide]
IC50 [1]: ≤ 5 nM
IC50 [2]: ≤ 5 nM

Cc1c(Cl)c(C#N)nc(N2CCCC(F)(F)CC2)c1C(=O)Nc1cccc([S@](C)(=N)=O)c1 [Example 171, (R)-5-chloro-6-cyano-2-(4,4-difluoroazepan-1-yl)-4-methyl-N-(3-(S-methylsulfonimidoyl)phenyl)nicotinamide]
IC50 [1]: ≤ 5 nM
IC50 [2]: ≤ 5 nM

Cc1c(-c2cccc(F)c2)cnc(N2CCCC(F)(F)CC2)c1C(=O)Nc1cccc([S@@](C)(=N)=O)c1 [Example 111, (S)-2-(4,4-difluoroazepan-1-yl)-5-(3-fluorophenyl)-4-methyl-N-(3-(S-methylsulfonimidoyl)phenyl)nicotinamide]
IC50 [1]: ≤ 5 nM
IC50 [2]: ≤ 5 nM

Cc1c(-c2cnn(C)c2)cnc(N2CCCC(F)(F)CC2)c1C(=O)Nc1cccc([S@@](C)(=O)=NC(=O)C2COC2)c1 [Example 54, (R)-2-(4,4-difluoroazepan-1-yl)-4-methyl-5-(1-methyl-1H-pyrazol-4-yl)-N-(3-(S-methyl-N-(oxetane-3-carbonyl)sulfonimidoyl)phenyl)nicotinamide]
IC50 [1]: 5 to 50 nM
IC50 [2]: 5 to 50 nM

Cc1c(C#N)nnc(N2CCCC(F)(F)CC2)c1C(=O)Nc1cccc([S@](C)(=N)=O)c1 [Example 139, (R)-6-cyano-3-(4,4-difluoroazepan-1-yl)-5-methyl-N-(3-(S-methylsulfonimidoyl)phenyl)pyridazine-4-carboxamide]
IC50 [1]: 100 to 200 nM
IC50 [2]: > 200 nM

Cc1c(-c2cnn(C)c2)nnc(N2CCCC(F)(F)CC2)c1C(=O)NC12CC(C(N)=O)(C1)C2 [Example 141, N-(3-carbamoylbicyclo[1.1.1]pentan-1-yl)-3-(4,4-difluoroazepan-1-yl)-5-methyl-6-(1-methyl-1H-pyrazol-4-yl)pyridazine-4-carboxamide]
IC50 [1]: ≤ 5 nM
IC50 [2]: ≤ 5 nM

Cc1c(Cl)cnc(N2CCCC(F)(F)CC2)c1C(=O)Nc1cccc(S(C)(=N)=O)c1 (stereo not shown) [Example 95, 5-chloro-2-(4,4-difluoroazepan-1-yl)-4-methyl-N-(3-(S-methylsulfonimidoyl)phenyl)nicotinamide]
IC50 [1]: ≤ 5 nM
IC50 [2]: ≤ 5 nM

Cc1c(C#N)c(C(F)(F)F)nc(N2CCCC(F)(F)CC2)c1C(=O)Nc1cccc([S@@](C)(=O)=NC(=O)C2CNC2)c1 [Example 57, (R)-N-(3-(N-(azetidine-3-carbonyl)-S-methylsulfonimidoyl)phenyl)-5-cyano-2-(4,4-difluoroazepan-1-yl)-4-methyl-6-(trifluoromethyl)nicotinamide formate]
IC50 [1]: ≤ 5 nM
IC50 [2]: ≤ 5 nM

Cc1c(C(F)(F)F)nnc(N2CCCC(F)(F)CC2)c1C(=O)Nc1cccc([S@@](C)(=O)=NC(=O)[C@H](C)O)c1 [Example 233, 3-(4,4-difluoroazepan-1-yl)-N-(3-((R)-N-((S)-2-hydroxypropanoyl)-S-methylsulfonimidoyl)phenyl)-5-methyl-6-(trifluoromethyl)pyridazine-4-carboxamide]
IC50 [1]: ≤ 5 nM
IC50 [2]: ≤ 5 nM

Cc1c(C#N)c(C#N)nc(N2CCCC(F)(F)CC2)c1C(=O)Nc1cccc([S@](C)(=N)=O)c1 [Example 170, (R)-5,6-dicyano-2-(4,4-difluoroazepan-1-yl)-4-methyl-N-(3-(S-methylsulfonimidoyl)phenyl)nicotinamide]
IC50 [1]: 5 to 50 nM
IC50 [2]: 5 to 50 nM

Cc1c(C(F)(F)F)nnc(N2CCCC(F)(F)CC2)c1C(=O)Nc1ccnc(S(C)(=N)=O)c1 (stereo not shown) [Example 102, 3-(4,4-difluoroazepan-1-yl)-5-methyl-N-(2-(S-methylsulfonimidoyl)pyridin-4-yl)-6-(trifluoromethyl)pyridazine-4-carboxamide]
IC50 [1]: 5 to 50 nM
IC50 [2]: 5 to 50 nM

Cc1c(-c2ccccc2)cnc(N2CCCC(F)(F)CC2)c1C(=O)Nc1cccc([S@](C)(=N)=O)c1 [Example 122, (R)-2-(4,4-difluoroazepan-1-yl)-4-methyl-N-(3-(S-methylsulfonimidoyl)phenyl)-5-phenylnicotinamide]
IC50 [1]: ≤ 5 nM
IC50 [2]: ≤ 5 nM

Cc1c(-c2ccn(C)n2)cnc(N2CCCC(F)(F)CC2)c1C(=O)Nc1cccc(S(C)(=N)=O)c1 (stereo not shown) [Example 89, 2-(4,4-difluoroazepan-1-yl)-4-methyl-5-(1-methyl-1H-pyrazol-3-yl)-N-(3-(S-methylsulfonimidoyl)phenyl)nicotinamide]
IC50 [1]: 100 to 200 nM
IC50 [2]: 100 to 200 nM

Cc1c(C#N)c(C(F)(F)F)nc(N2CCCC(F)(F)CC2)c1C(=O)Nc1cccc([S@@](C)(=O)=NC(=O)C2(N)CCC2)c1 [Example 73, (R)-N-(3-(N-(1-aminocyclobutane-1-carbonyl)-S-methylsulfonimidoyl)phenyl)-5-cyano-2-(4,4-difluoroazepan-1-yl)-4-methyl-6-(trifluoromethyl)nicotinamide]
IC50 [1]: 5 to 50 nM
IC50 [2]: 50 to 100 nM

CS(=N)(=O)c1cccc(NC(=O)c2nnc(C(F)(F)F)cc2N2CCCC(F)(F)CC2)c1 (stereo not shown) [Example 21, 4-(4,4-difluoroazepan-1-yl)-N-(3-(S-methylsulfonimidoyl)phenyl)-6-(trifluoromethyl)pyridazine-3-carboxamide]
IC50 [1]: > 200 nM
IC50 [2]: > 200 nM

C[S@@](=N)(=O)c1cc(NC(=O)c2cc(Cl)c(C(F)(F)F)cc2N2CCO[C@H](C(F)(F)F)C2)ccn1 [Example 218, 5-chloro-N-(2-((R)—S-methylsulfonimidoyl)pyridin-4-yl)-4-(trifluoromethyl)-2-((S)-2-(trifluoromethyl)morpholino)benzamide]
IC50 [1]: 5 to 50 nM
IC50 [2]: 5 to 50 nM

Cc1c(C(F)(F)F)nnc(N2CCCC(F)(F)CC2)c1C(=O)Nc1cccc([S@@](C)(=O)=NC(=O)CN)c1 [Example 177, (R)-3-(4,4-difluoroazepan-1-yl)-N-(3-(N-glycyl-S-methylsulfonimidoyl)phenyl)-5-methyl-6-(trifluoromethyl)pyridazine-4-carboxamide]
IC50 [1]: ≤ 5 nM
IC50 [2]: ≤ 5 nM

C[S@@](=N)(=O)c1cccc(NC(=O)c2cc(Cl)c(C(F)(F)F)cc2N2CCO[C@H](C(F)(F)F)C2)c1 [Example 215, 5-chloro-N-(3-((R)—S-methylsulfonimidoyl)phenyl)-4-(trifluoromethyl)-2-((S)-2-(trifluoromethyl)morpholino)benzamide]
IC50 [1]: 5 to 50 nM
IC50 [2]: 5 to 50 nM

Cc1nc(N2CC(F)(F)C2)nc(N2CCCC(F)(F)CC2)c1C(=O)Nc1cccc([S@](C)(=N)=O)c1 [Example 158, (R)-4-(4,4-difluoroazepan-1-yl)-2-(3,3-difluoroazetidin-1-yl)-6-methyl-N-(3-(S-methylsulfonimidoyl)phenyl)pyrimidine-5-carboxamide]
IC50 [1]: 50 to 100 nM
IC50 [2]: 50 to 100 nM

From patent US20250154109A1, “SODIUM CHANNEL BLOCKING COMPOUNDS, DERIVATIVES THEREOF, AND METHODS OF THEIR USE” (LATIGO BIOTHERAPEUTICS, INC, priority 2022, published 2025)
